Key:
[1] = system: children with HGPS; details: children with HGPS treated with lonafarnib; cited from earlier work
[2] = system: patients with HGPS; assay: Life expectancy versus progerin decrease and time on lonafarnib therapy (dynamic model based on cRMST); format: in vivo, human
Text: To quantify increase in life expectancy as it related to decrease in progerin and duration of time on lonafarnib therapy, the methodology by Yang et al. (2021), which proposes a dynamic model that utilizes a series of landmark time points (Dafni, 2011) based on the conditional restricted mean survival time (cRMST), was utilized. This analysis also adjusted for sex and age at baseline.
Next, the relationship between lonafarnib treatment duration and change in life expectancy with extent of change in plasma progerin was assessed (FIG. 7, Table 7). This analysis included samples from patients with a baseline pre-therapy and at least one on-treatment progerin measurement (N=65 patients). […] Three representative wide-ranging examples of on-therapy progerin decreases (1,000, 10,000 and 15,000 pg/mL) spanning 10 years on treatment are graphed in FIG. 7. Patient lifespan increased in all 3 examples.

[3] = children with HGPS treated with lonafarnib during a clinical trial; cited from earlier work
[4] = system: plasma progerin; assay: Plasma progerin (SMC progerin immunoassay) in HGPS clinical trial patients on therapy; format: in vivo, human
Text: An SMC ultrasensitive immunoassay for the detection of plasma progerin was developed. Overall, the assay employed a sandwich immunoassay format with an anti-lamin A capture antibody coated on magnetic microparticles, and an anti-progerin specific detection antibody conjugated to a fluorescent tag (FIG. 1) run in a 96-well plate. Progerin-bound detection antibody was eluted and read as single molecules using a confocal laser.
The SMC assay for measuring Progerin was as previously described (Todd et al.), except that magnetic microparticles (MP) coated with capture antibodies and detection reagents were specific to the progerin assay (FIG. 1). Briefly, the progerin capture antibody (mouse Mab anti-Lamin A+C, clone: 131C3 Abcam, epitope between amino acid residues 319-566, common to Lamins A, C and progerin) was coated onto MP at 25 μg antibody/mg MP. Samples were exposed to the MP-capture antibody, to specifically bind analyte, followed by one plate wash to remove unbound material. Next, fluorescently labeled progerin-specific detection antibody (Mouse Mab, clone: 13A4, from Millipore, epitope between amino acids 604 and 611 of progerin, which cross the deletion region of lamin A), pre-diluted to 2,000 ng/mL in assay buffer and then filtered through a 0.2 μm filter (MilliporeSigma), was added to wells. Plates were then washed 4 times to remove any unbound detection antibody. All MPs were then transferred from the initial 96-well assay plate to a new plate to avoid eluting any non-specific plate-bound detection antibody. Progerin-bound detection antibody was then eluted by pH shift using a proprietary glycine buffer, transferred to a new plate and detected by SMC using the Erenna Immunoassay System software (SgxLink™). The raw signal data and the interpolated value data obtained from SgxLink were transferred to Excel where precision was then calculated for the replicate wells. The acceptance specification for raw signal and interpolated values was precision and recovery bias≤20%.
A 12-point standard curve of recombinant progerin (Abcam 93918) diluted in EMD standard diluent, a synthetic serum-based solution containing a proprietary mixture of Tris buffer and carrier protein (emdmillipore.com), was run on each plate in triplicate. The standard curve was used to determine progerin concentration in unknown samples. Samples were diluted in standard diluent so that anticipated progerin fell within the dynamic range of the standard curve. All reported progerin and SD are dilution-corrected. All samples were tested in duplicate, unless triplicate is specified.
Human clinical data was obtained from The PRF International Progeria Registry, Diagnostics Program, and Medical and Research Database (available online at progeriaresearch.org). HGPS plasma and serum were obtained from The PRF Cell and Tissue Bank (available online at progeriaresearch.org). Clinical trial samples were donated to the Bank from Boston Children's Hospital (BCH) with informed consent or approval from the BCH Committee on Clinical Investigation. Trial samples were collected in a fasting state, in the morning just prior to treatment dosing as trough samples, except pK samples which were collected at trough and then at specified times post-trough. Non-trial samples were not regulated as to time of day collected. Some nonHGPS healthy human plasma samples were obtained from ProMedDx. HGPS and nonHGPS plasma sample IDs were assigned HGPI and NPI prefixes, respectively.
For analysis, samples were fully thawed at RT for <5 min, lightly mixed, diluted in standard diluent before transferring into filter plate wells (MilliporeSigma MSBVN1210). Patient plasma volumes required for analysis were 200 or 100 μl (nonHGPS 1:1 and 1:2) and 8 μl (HGPS 1:25) to generate duplicates. Filter plates with sample were centrifuged for 10 minutes to pull sample through the filters. Filtrate was then assessed as described. […]

SMILES: NC(=O)N1CCC(CC(=O)N2CCC([C@H]3c4ncc(Br)cc4CCc4cc(Cl)cc(Br)c43)CC2)CC1 [lonafarnib]
- increased survival, estimated, on average [1]: 2.5 years
- estimated increase in life expectancy ([2]; 13 patients on therapy for over 10 years): ~6 years
- increase in average lifespan ([2]; from 14.5 to over 20 years of age, 13 patients on therapy over 10 years): greater than 40%
- Cmax [3]: 2640 ng/mL
- average progerin, consecutive Triple Therapy vs on-treatment lonafarnib monotherapy extension visits ([4]; 10 patients, extension 4.1±0.5 years, p=0.99): no significant differences
- average decreases in progerin from baseline ([4]; ProLon1, 5 remaining visits, lonafarnib 150 mg/m^2, N=22-25, all p<0.0001): 50-62%
- progerin at 150 mg/m^2 lonafarnib versus the 115 mg/m^2 dose ([4]; ProLon1, each of the 4 trial visits after the 8-month visit, N=22-25, all p<0.05): significantly decreased
- average progerin decrease from baseline ([4]; ProLon1, month 4, lonafarnib 115 mg/m^2, N=25, p<0.0001): 48%
- average difference of progerin trough (lower) from 2-, 4- and 8-hours post-dose ([4]; ProLon1 pK samples, lonafarnib 115 mg/m^2, all p<0.05): about 3,000 pg/mL
- progerin post-dose (hours 1,2,4,6,8) vs. trough levels ([4]; ProLon1 pK samples, lonafarnib 150 mg/m^2, all p≥0.05): did not demonstrate significant changes
- average progerin decrease from baseline ([4]; ProLon2, lonafarnib monotherapy 150 mg/m^2, dosing period, N=26, p<0.0001): 36.7%
- time to significant decrease of plasma progerin levels ([4]; lonafarnib therapy, HGPS patients): ≤ 4 months
- average decreases in progerin from baseline ([4]; long-term continuous therapy subgroup N=13, all subsequent time points, 150 mg/m^2, up to 9.8±0.5 years, p<0.0001): 56-74%
- average progerin decrease from baseline ([4]; long-term continuous therapy subgroup N=13, month 4, 115 mg/m^2, p<0.0001): 48%
- average decrease of trial patients' plasma progerin ([4]; on therapy, HGPS trial patients): more than 14,000 pg/mL
- average on-therapy plasma progerin decrease from baseline untreated ([4]; overall, all trials, HGPS patients, p<0.0001): 38%
- average on-therapy plasma progerin ([4]; overall, all trials, baseline untreated 32,726±12,659 pg/mL): 20,211±10,190 pg/mL
